These results are taken from patent US20220241409A1, “WATER SOLUBLE ADJUVANT AND COMPOSITION CONTAINING SAME” (Sumitomo Dainippon Pharma Co., Ltd., priority 2019, published 2022).

As a reminder, the EC50 is the concentration needed to bring the measured effect to its halfway point. A high value points to a less potent agent.

The target in experiment [1] is T1, mouse TLR7 (Mus musculus, UniProt P58681).
T1 construct: expresses full-length mouse TLR7 and secretory SEAP reporter gene; host or cells: HEK-Blue mTLR7 cell line
T1 sequence (P58681 27-1050): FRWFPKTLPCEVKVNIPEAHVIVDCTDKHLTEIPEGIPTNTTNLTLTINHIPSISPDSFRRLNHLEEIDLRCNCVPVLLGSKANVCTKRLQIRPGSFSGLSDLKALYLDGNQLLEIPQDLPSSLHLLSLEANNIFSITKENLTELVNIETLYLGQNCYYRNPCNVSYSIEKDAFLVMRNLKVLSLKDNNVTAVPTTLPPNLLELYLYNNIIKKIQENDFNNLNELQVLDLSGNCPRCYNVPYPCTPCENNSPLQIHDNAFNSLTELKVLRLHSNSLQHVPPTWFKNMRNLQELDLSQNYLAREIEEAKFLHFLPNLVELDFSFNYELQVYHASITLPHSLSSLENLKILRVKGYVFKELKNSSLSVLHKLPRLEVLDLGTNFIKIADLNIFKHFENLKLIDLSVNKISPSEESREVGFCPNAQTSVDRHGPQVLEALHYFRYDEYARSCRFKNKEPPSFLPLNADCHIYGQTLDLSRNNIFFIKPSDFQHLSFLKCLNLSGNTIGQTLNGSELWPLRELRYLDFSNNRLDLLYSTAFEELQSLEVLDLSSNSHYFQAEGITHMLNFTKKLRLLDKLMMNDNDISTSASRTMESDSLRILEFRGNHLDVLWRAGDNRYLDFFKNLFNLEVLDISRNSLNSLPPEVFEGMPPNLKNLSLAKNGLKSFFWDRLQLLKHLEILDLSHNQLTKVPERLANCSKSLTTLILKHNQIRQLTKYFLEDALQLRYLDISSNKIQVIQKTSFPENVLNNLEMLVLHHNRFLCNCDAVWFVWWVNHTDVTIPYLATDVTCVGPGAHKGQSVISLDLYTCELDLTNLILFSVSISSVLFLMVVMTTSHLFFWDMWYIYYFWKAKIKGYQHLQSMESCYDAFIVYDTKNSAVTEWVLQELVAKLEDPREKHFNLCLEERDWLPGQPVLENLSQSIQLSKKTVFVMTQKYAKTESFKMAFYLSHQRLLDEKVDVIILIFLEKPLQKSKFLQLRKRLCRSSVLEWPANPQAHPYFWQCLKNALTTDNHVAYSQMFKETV
As to the kind of experiment: Mouse TLR7 reporter gene assay (Test 2). Format: cell-based. Conditions: half-maximal SEAP induction, HEK-Blue mTLR7 cell line, overnight 37° C., 0.1% DMSO. An excerpt: HEK-Blue™ mTLR7 cell line (Invivogen) is a stably co-transfected cell line which expresses full-length mouse TLR7 and secretory SEAP reporter gene under the transcriptional regulation of an NF-κB response element. The TLR7 expression of the cell line has been already tested by RT-PCR. Transfectants with stable expression were selected using the antibiotic blasticidin and Zeocin. TLR signaling leads to the translocation of NF-κB and the activation of the promoter results in expression of the SEAP gene. TLR7-specific activation was assessed by determining the level of SEAP produced following overnight incubation of the cells at 37° C. with each compound prepared in Examples and Reference examples in the presence of 0.1% (v/v) DMSO. The mouse TLR7 activity for the present compound was assessed by mouse TLR7 reporter gene assay, and the results are shown in Tables 8 and 9 as the compound concentration which produced half of the maximal level of SEAP induction (EC50).

The target of experiment [2] is T2, human TLR7 (Homo sapiens, UniProt Q9NYK1).
T2 construct: expresses full-length human TLR7 and secretory alkaline phosphatase (SEAP) reporter gene; host or cells: TLR7/NF-κB/SEAPorter HEK293 cell line
T2 sequence (Q9NYK1 27-1049): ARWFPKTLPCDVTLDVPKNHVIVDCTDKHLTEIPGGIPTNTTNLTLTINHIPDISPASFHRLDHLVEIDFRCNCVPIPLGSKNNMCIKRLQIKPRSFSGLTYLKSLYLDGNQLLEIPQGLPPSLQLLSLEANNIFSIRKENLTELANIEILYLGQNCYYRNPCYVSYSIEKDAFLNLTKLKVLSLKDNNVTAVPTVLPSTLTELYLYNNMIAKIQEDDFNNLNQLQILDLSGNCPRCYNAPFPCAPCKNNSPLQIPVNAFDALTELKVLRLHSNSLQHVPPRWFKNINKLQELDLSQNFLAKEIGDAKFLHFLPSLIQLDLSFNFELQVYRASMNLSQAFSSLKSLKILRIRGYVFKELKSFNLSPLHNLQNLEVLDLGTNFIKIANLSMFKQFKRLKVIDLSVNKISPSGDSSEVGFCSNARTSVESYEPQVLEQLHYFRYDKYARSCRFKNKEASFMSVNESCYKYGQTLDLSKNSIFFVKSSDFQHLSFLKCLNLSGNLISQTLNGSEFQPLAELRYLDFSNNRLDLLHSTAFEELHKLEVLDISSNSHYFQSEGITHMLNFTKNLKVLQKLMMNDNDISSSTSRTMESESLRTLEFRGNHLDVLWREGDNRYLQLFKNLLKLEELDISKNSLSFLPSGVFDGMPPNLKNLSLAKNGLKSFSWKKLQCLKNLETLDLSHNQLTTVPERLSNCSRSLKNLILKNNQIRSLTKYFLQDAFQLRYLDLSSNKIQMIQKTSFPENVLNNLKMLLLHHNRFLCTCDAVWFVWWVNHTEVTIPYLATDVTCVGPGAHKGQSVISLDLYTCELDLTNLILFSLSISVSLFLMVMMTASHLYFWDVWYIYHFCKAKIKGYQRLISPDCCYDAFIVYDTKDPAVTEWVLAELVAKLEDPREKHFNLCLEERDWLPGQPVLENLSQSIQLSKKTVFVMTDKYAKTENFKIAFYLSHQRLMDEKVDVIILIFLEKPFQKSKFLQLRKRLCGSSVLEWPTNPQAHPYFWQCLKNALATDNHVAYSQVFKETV
The experiment in a line: Human TLR7 reporter gene assay (Test 1). The following applies: half-maximal SEAP induction, TLR7/NF-κB/SEAPorter HEK293 cell line, overnight 37° C., 0.1% DMSO. Format: cell-based. An excerpt: TLR7/NF-κB/SEAPorter™ HEK293 cell line (Imgenex Corporation) is a stably co-transfected cell line which expresses full-length human TLR7 and secretory alkaline phosphatase (SEAP) reporter gene under the transcriptional regulation of an NF-κB response element. The TLR7 expression of the cell line has been already tested by flow cytometry. Transfectants with stable expression were selected using the antibiotic blasticidin and Geneticin. TLR signaling leads to the translocation of NF-κB and the activation of the promoter results in expression of the SEAP gene. TLR7-specific activation was assessed by determining the level of SEAP produced following overnight incubation of the cells at 37° C. with each compound prepared in Examples and Reference examples in the presence of 0.1% (v/v) dimethylsulfoxide (DMSO). The human TLR7 activity for the present compound was assessed by human TLR7 reporter gene assay, and the results are shown in Tables 6 and 7 as the compound concentration which produced half of the maximal level of SEAP induction (EC50).

As to `CCCCOc1nc(N)c2[nH]c(=O)n(Cc3ccc(CNC)nc3)c2n1` [Reference example 12, reference compound], the concentration for a half-maximal effect (EC50) was found to be 0.251 µM in experiment [1] (Table 9, Reference examples) and 0.578 µM in experiment [2] (Table 7, Reference examples).

Take `CCCCOc1nc(N)c2[nH]c(=O)n(Cc3ccc(CNC)cc3)c2n1` [Reference example 14, reference compound]: the EC50 in experiment [1] (Table 9, Reference examples) amounted to 0.023 µM; in experiment [2] (Table 7, Reference examples), 0.012 µM.

In the case of `CCCCOc1nc(N)c2[nH]c(=O)n(Cc3ccc(CN(C)CCOCCOCCOCCOCCO)cc3)c2n1` [Example 3, 6-amino-2-butoxy-9-{[4-(16-hydroxy-2-methyl-5,8,11,14-tetraoxa-2-azahexadecan-1-yl)phenyl]methyl}-7,9-dihydro-8H-purin-8-one], the concentration giving a half-maximal response (EC50) in experiment [1] (Table 8, Examples) amounted to 0.042 µM; in experiment [2] (Table 6, Examples), 0.024 µM.

Regarding `CCCCOc1nc(N)c2[nH]c(=O)n(Cc3ccc(CN(C)CCOCCOCCOCCOCCO)nc3)c2n1` [Example 2, 6-amino-2-butoxy-9-{[6-(16-hydroxy-2-methyl-5,8,11,14-tetraoxa-2-azahexadecan-1-yl)pyridin-3-yl]methyl}-7,9-dihydro-8H-purin-8-one-trifluoroacetate], the concentration giving a half-maximal response (EC50) in experiment [1] (Table 8, Examples) worked out at 0.51 µM; in experiment [2] (Table 6, Examples), 0.774 µM.
